Reference: patent publication US7582649B2, “Hydroxy alkyl substituted 1,3,8-triazaspiro[4.5]decan-4-one derivatives useful for the treatment of ORL-1 receptor mediated disorders” (Janssen Pharmaceutica, NV, priority 2002, dated 2009)
Where “and” joins values, the source holds several entries; their conditions need not be identical. Identical values can stand only once. Like-named read-outs stand apart in the source and are kept apart here.

Columns and labels:
mu opioid receptor = mu opioid receptor (Homo sapiens, UniProt P35372); test: Filtration binding assay: mu opioid receptor
kappa opioid receptor = kappa opioid receptor (Homo sapiens, UniProt P41145); test: Filtration binding assay: kappa opioid receptor
Long-Evans Hooded rats [1] = test: Stress induced hyperthermia (SIH) in vivo assay, rectal temperature; design: species or system rat
Experimental: (§1) Male Long-Evans Hooded rats weighing 180 to 200 grams at the time of purchase were obtained from Charles River Laboratories (Raleigh, N.C.). Upon arrival, the animals were group housed four per cage in quarantine for 5 days in wire-mesh cages at an ambient temperature of 21 to 23° C. with an automated 12/12 hour light/dark cycle and ad libitum access to water and a commercial rodent chow. The rats were then transferred to a general housing room for a one-week acclimation with housing and environmental conditions, and 12/12 hour light/dark cycle conditions. Animals were fasted overnight (18 hours) prior to experiment.
[…] One hour after dosing, baseline rectal temperatures were recorded for each rat. Rats were then immediately isolated in shoebox cages with ALPHA-DRY bedding. Rectal temperatures were then recorded at 15 min, 30 min, and 45 min after isolation (i.e., 1 hr 15 min, 1 hr 30 min, and 1 hr 45 minutes after test compound or vehicle administration). All experiments were conducted during the light cycle. After completion of the behavioral portion of the study, each animal was killed via decapitation using a guillotine and trunk blood was collected in 5 mL vacutainer tube containing EDTA and placed on ice. The samples were then centrifuged at 3800 RPM for 10 minutes and plasma was removed and placed on dry ice in an Eppendorff sample tube. Plasma samples were stored at −80° C. and later used for determining ACTH, corticosterone, and glucose levels. Plasma samples were outsourced to Anilytics, Inc. for determination of plasma levels of ACTH, coricosterone, and glucose. A Mann-Whitney U t-test (one-tailed) was used for statistical analysis of behavioral data and an unpaired t-test (one-tailed) was used for analysis of plasma ACTH, corticosterone, and glucose levels.
Compound #438 was suspended in an aqueous vehicle comprised of 0.5% (w/v) methylcellulose (15 centipoises) solution.

Long-Evans Hooded rats [2] = test: Plasma stress hormone levels (ACTH, corticosterone, glucose) after SIH; format: in vivo, rat; conditions: p.o.
Experimental: as §1
On the day of experiment, group-housed (4/group) Long-Evans Hooded rats were divided into various treatment groups (N=8 to 32) and test compound at 0.03-3.0 mg/kg or vehicle was administered orally (p.o.) by gavage in a dose volume equivalent to 5 mL/kg. One hour after dosing, baseline rectal temperatures were recorded for each rat. Rats were then immediately isolated in shoebox cages with ALPHA-DRY bedding. Rectal temperatures were then recorded at 15 min, 30 min, and 45 min after isolation (i.e., 1 hr 15 min, 1 hr 30 min, and 1 hr 45 minutes after test compound or vehicle administration). All experiments were conducted during the light cycle. […]

Long-Evans Hooded rats [3] = conditions: rat, in vivo, po; for Total Entries (EPM), % Change / Total Entries (EPM), Mean: male, Long-Evans Hooded
Long-Evans Hooded rats [4] = conditions: male, rat, in vivo, po

Sequence of mu opioid receptor (P35372 whole entry): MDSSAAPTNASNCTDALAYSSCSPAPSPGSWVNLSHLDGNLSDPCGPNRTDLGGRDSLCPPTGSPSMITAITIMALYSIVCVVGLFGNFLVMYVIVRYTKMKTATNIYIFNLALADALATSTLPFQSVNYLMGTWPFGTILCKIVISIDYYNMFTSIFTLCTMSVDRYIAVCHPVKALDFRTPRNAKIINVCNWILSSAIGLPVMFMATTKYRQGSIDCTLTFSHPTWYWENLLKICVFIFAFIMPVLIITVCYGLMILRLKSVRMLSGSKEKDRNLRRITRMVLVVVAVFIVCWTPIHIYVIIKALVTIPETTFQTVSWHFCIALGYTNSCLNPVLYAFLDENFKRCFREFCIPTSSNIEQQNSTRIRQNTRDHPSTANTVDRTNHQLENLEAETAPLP
Sequence of kappa opioid receptor (P41145 whole entry): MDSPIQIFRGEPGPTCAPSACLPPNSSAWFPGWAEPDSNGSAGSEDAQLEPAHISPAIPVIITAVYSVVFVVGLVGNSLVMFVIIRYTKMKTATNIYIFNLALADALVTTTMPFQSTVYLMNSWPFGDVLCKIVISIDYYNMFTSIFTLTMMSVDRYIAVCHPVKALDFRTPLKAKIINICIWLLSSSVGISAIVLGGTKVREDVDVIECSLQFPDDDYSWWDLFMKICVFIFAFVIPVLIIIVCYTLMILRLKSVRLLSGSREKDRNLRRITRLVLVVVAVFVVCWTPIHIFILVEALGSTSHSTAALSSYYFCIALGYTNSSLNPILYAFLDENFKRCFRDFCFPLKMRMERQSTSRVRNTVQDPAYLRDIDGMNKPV

Structure (SMILES): Cc1cccc2cccc(CN3CCC4(CC3)C(=O)N(C[C@H](O)CN)CN4c3ccc(F)cc3)c12 [Compound #438, 3-(3-Amino-2-(R)-hydroxy-propyl)-1-(4-fluoro-phenyl)-8-(8-methyl-naphthalen-1-ylmethyl)-1,3,8-triaza-spiro[4.5]decan-4-one]
- IC50 (mu opioid receptor): > 10 µM
- IC50 (kappa opioid receptor): > 10 µM
- Rectal Temp., Mean (Long-Evans Hooded rats [1]; 0.03 mg/kg p.o., 0 (Basal), 1 hr after dosing): 37.5 °C
- Rectal Temp., Mean (Long-Evans Hooded rats [1]; 0.03 mg/kg p.o., 15 min after isolation): 38.7 °C
- Rectal Temp., Mean (Long-Evans Hooded rats [1]; 0.03 mg/kg p.o., 30 min after isolation): 38.6 °C
- Rectal Temp., Mean (Long-Evans Hooded rats [1]; 0.03 mg/kg p.o., 45 min after isolation): 38.4 °C
- Rectal Temp., Mean (Long-Evans Hooded rats [1]; 0.1 mg/kg p.o., 0 (Basal), 1 hr after dosing): 37.2 °C
- Rectal Temp., Mean (Long-Evans Hooded rats [1]; 0.1 mg/kg p.o., 15 min after isolation): 38.4 °C
- Rectal Temp., Mean (Long-Evans Hooded rats [1]; 0.1 mg/kg p.o., 30 min after isolation): 38.5 °C
- Rectal Temp., Mean (Long-Evans Hooded rats [1]; 0.1 mg/kg p.o., 45 min after isolation): 38.5 °C
- Rectal Temp., Mean (Long-Evans Hooded rats [1]; 0.3 mg/kg p.o., 0 (Basal), 1 hr after dosing): 37.4 °C
- Rectal Temp., Mean (Long-Evans Hooded rats [1]; 0.3 mg/kg p.o., 15 min after isolation): 38.4 °C
- Rectal Temp., Mean (Long-Evans Hooded rats [1]; 0.3 mg/kg p.o., 30 min after isolation): 38.5 °C
- Rectal Temp., Mean (Long-Evans Hooded rats [1]; 0.3 mg/kg p.o., 45 min after isolation): 38.3 °C
- Rectal Temp., Mean (Long-Evans Hooded rats [1]; 1.0 mg/kg p.o., 0 (Basal), 1 hr after dosing): 37.1 °C
- Rectal Temp., Mean (Long-Evans Hooded rats [1]; 1.0 mg/kg p.o., 15 min after isolation): 38.4 °C
- Rectal Temp., Mean (Long-Evans Hooded rats [1]; 1.0 mg/kg p.o., 30 min after isolation): 38.5 °C
- Rectal Temp., Mean (Long-Evans Hooded rats [1]; 1.0 mg/kg p.o., 45 min after isolation): 38.2 °C
- Rectal Temp., Mean (Long-Evans Hooded rats [1]; 3.0 mg/kg p.o., 0 (Basal), 1 hr after dosing): 37.0 °C
- Rectal Temp., Mean (Long-Evans Hooded rats [1]; 3.0 mg/kg p.o., 15 min after isolation): 38.2 °C
- Rectal Temp., Mean (Long-Evans Hooded rats [1]; 3.0 mg/kg p.o., 30 min after isolation): 38.4 °C
- Rectal Temp., Mean (Long-Evans Hooded rats [1]; 3.0 mg/kg p.o., 45 min after isolation): 38.2 °C
- rectal temperature in the SIH model (Long-Evans Hooded rats [1]; p.o., at 0.03 mg/kg, 0.01 mg/kg, 0.3 mg/kg, 1.0 mg/kg and 3.0 mg/kg): attenuation of rectal temperature
- changes in the plasma levels of corticosterone (Long-Evans Hooded rats [2]): not statistically significant
- reduction in plasma ACTH levels (Long-Evans Hooded rats [2]; 0.3 mg/kg, P=0.0170): 25%
- Total Entries (EPM), % Change (Long-Evans Hooded rats [3]; 0.03 mg/kg): 1.0%
- Total Entries (EPM), Mean (Long-Evans Hooded rats [3]; 0.03 mg/kg): 102.0
- Total Entries (EPM), % Change (Long-Evans Hooded rats [3]; 10 mg/kg): −6.4%
- Total Entries (EPM), Mean (Long-Evans Hooded rats [3]; 10 mg/kg): 94.5
- Total Entries (EPM), % Change (Long-Evans Hooded rats [3]; 30 mg/kg): −14.6%
- Total Entries (EPM), Mean (Long-Evans Hooded rats [3]; 30 mg/kg): 86.3
- % Open Arm Entries (EPM), % Change (Long-Evans Hooded rats [3]; 0.03 mg/kg): −11.1%
- % Open Arm Entries (EPM), Mean (Long-Evans Hooded rats [3]; 0.03 mg/kg): 5.14%
- % Open Arm Time (EPM), % Change (Long-Evans Hooded rats [3]; 0.03 mg/kg): −18.8%
- % Open Arm Time (EPM), Mean (Long-Evans Hooded rats [3]; 0.03 mg/kg): 6.67%
- % Open Arm Entries (EPM), % Change (Long-Evans Hooded rats [3]; 0.1 mg/kg): 34.4% and 40.4%
- % Open Arm Entries (EPM), Mean (Long-Evans Hooded rats [3]; 0.1 mg/kg): 7.77% and 9.17%
- % Open Arm Time (EPM), Mean (Long-Evans Hooded rats [3]; 0.1 mg/kg): 12.1% and 17.2%
- % Open Arm Entries (EPM), % Change (Long-Evans Hooded rats [3]; 0.3 mg/kg): 54.8% and 80.7%
- % Open Arm Entries (EPM), Mean (Long-Evans Hooded rats [3]; 0.3 mg/kg): 8.95% and 11.8%
- % Open Arm Time (EPM), Mean (Long-Evans Hooded rats [3]; 0.3 mg/kg): 13.8% and 21.8%
- % Open Arm Entries (EPM), % Change (Long-Evans Hooded rats [3]; 1 mg/kg): 72.1% and 46.6%
- % Open Arm Entries (EPM), Mean (Long-Evans Hooded rats [3]; 1 mg/kg): 9.95% and 9.57%
- % Open Arm Time (EPM), % Change (Long-Evans Hooded rats [3]; 1 mg/kg): 80.3% and 89.7%
- % Open Arm Time (EPM), Mean (Long-Evans Hooded rats [3]; 1 mg/kg): 14.8% and 15.1%
- % Open Arm Entries (EPM), % Change (Long-Evans Hooded rats [3]; 3 mg/kg): 44.3% and 37.8%
- % Open Arm Entries (EPM), Mean (Long-Evans Hooded rats [3]; 3 mg/kg): 8.34% and 9.0%
- % Open Arm Time (EPM), Mean (Long-Evans Hooded rats [3]; 3 mg/kg): 12.4% and 16.9%
- % Open Arm Entries (EPM), % Change (Long-Evans Hooded rats [3]; 10 mg/kg): 11.1%
- % Open Arm Entries (EPM), Mean (Long-Evans Hooded rats [3]; 10 mg/kg): 6.4%
- % Open Arm Time (EPM), % Change (Long-Evans Hooded rats [3]; 10 mg/kg): 0.9%
- % Open Arm Time (EPM), Mean (Long-Evans Hooded rats [3]; 10 mg/kg): 8.14%
- % Open Arm Entries (EPM), % Change (Long-Evans Hooded rats [3]; 30 mg/kg): 15.1%
- % Open Arm Entries (EPM), Mean (Long-Evans Hooded rats [3]; 30 mg/kg): 6.65%
- % Open Arm Time (EPM), % Change (Long-Evans Hooded rats [3]; 30 mg/kg): −60.9%
- % Open Arm Time (EPM), Mean (Long-Evans Hooded rats [3]; 30 mg/kg): 3.21%
- Horizontal Activity (SMA), % Change (Long-Evans Hooded rats [4]; 0.03 mg/kg): 9.9%
- Horizontal Activity (SMA), Mean (Long-Evans Hooded rats [4]; 0.03 mg/kg): 3565
- Vertical Movement (SMA), % Change (Long-Evans Hooded rats [4]; 0.03 mg/kg): 12.5%
- Vertical Movement (SMA), Mean (Long-Evans Hooded rats [4]; 0.03 mg/kg): 54.8
- Horizontal Activity (SMA), % Change (Long-Evans Hooded rats [4]; 10 mg/kg): −4.0%
- Horizontal Activity (SMA), Mean (Long-Evans Hooded rats [4]; 10 mg/kg): 3115
- Vertical Movement (SMA), % Change (Long-Evans Hooded rats [4]; 10 mg/kg): 11.9%
- Vertical Movement (SMA), Mean (Long-Evans Hooded rats [4]; 10 mg/kg): 54.5
- Horizontal Activity (SMA), % Change (Long-Evans Hooded rats [4]; 30 mg/kg): −15.8%
- Horizontal Activity (SMA), Mean (Long-Evans Hooded rats [4]; 30 mg/kg): 2730
- Vertical Movement (SMA), % Change (Long-Evans Hooded rats [4]; 30 mg/kg): −7.0%
- Vertical Movement (SMA), Mean (Long-Evans Hooded rats [4]; 30 mg/kg): 45.3
